In patent EP4427758A1, “NEW SYNERGISTIC ANTI-INFLAMMATORY, ANTIOXIDANT AND ANTIBACTERIAL ASSOCIATION” (NOOS S.r.l., priority 2023, dated 2024):
≈ marks a conversion by molar mass, not a printed value.

Assays:
[1] = NBT assay of antioxidant activity (superoxide scavenging); type: biochemical; conditions: NBT Test (O2^-•); read-out: Scavenging activity of the free radicals IC50
Procedure: For the inactivation of bacteria by heat, one started at a concentration of 4×10^9 CFU/mL. The bacteria were then centrifuged at 4000 rpm for 10 minutes, the supernatant discarded and replaced with 1 ml of 0.9% NaCl saline solution. The heat inactivation occurred at the temperature of 85°C for 15 minutes.
NBT assay (nitrobluetetrazolium) evaluates the capability of locking the formation of the superoxide radical ^·O2^-; the more ^·O2^- is produced, the more NBT is reduced in formazan. The capability of molecules and compounds to inhibit the NBT reduction by ^·O2^- in presence of β-nicotinammide adenin dinucleotide (β-NADH) and phenazinamethosulfate (PM) is then tested.
The spectrophometric reading was performed by kinetics, by measuring the OD values (λmax 560 nm) immediately and after 15 sec. The absorbance variation was used to calculate the inhibition percentage with respect to the control (solution of EtOH and of the solvent in which the different samples are dissolved).
To this purpose, on previously heat inactivated mixtures of bacteria, 8 serial dilutions were performed according to the scheme reported in figure 1; 20 µL of each dilution were then used in all assays of antioxidant activity according to the protocol indications.

L. reuteri LMG P-27481 = assay: Tolerance test: vitality of L. reuteri LMG P-27481 in presence of resveratrol in simulated saliva; type: cell-based, Lactobacillus (Limosilactobacillus) reuteri
Procedure: The simulated saliva (SS) was prepared with 8 g/l of sodium chloride, 0.19 g/l monobasic potassium phosphate, 2.38 g/l sodium phosphate (pH 6.8) and then sterilized (Alanzi et al., 2018). The cryopreserve stock of L. reuteri LMG P-27481 strain was controlled in order to verify the purity thereof and then cultivated on MRS Broth (De Man Rogosa Sharpe, Difco) under microaerophilic conditions at 37°C for 18 hours. The cultures in MRS broth of L. reuteri LMG P-27481 grown under microaerophilic conditions at 37°C for 18 hours were centrifuged, the supernatant discarded an the pellets were washed with sterile demineralized water. […] A test tube with only SS was used as positive control of survival. L. reuteri LMG P-27481 was analysed according to the standard of Mc Farland in order to obtain a vital load of 3×10^8 CFU/ml in the test tubes. […] Aliquots were collected after 5, 10, 30 and 60 minutes for determining vitality. All plates were incubated for 72 hours at 37°C under anaerobic conditions.

all tested pathogens = assay: MIC determination, summary over all tested pathogens; type: cell-based; conditions: range over all tested pathogens
Procedure: (§1) The supernatant from Streptococcus salivarius K12 was used as reference. To this purpose, the Minimum Inhibitory Concentration (MIC) was evaluated. The pathogen microorganisms were the following ones: Staphylococcus aureus NCTC 6571, Streptococcus pyogenes LMG 21599, Streptococcus pneumoniae DSM 20566, Moraxella chatarralis DSM 9143, Haemophilus influenzae DSM 4690.
(§2) L. reuteri LMG P-27481 and S. salivarius K12 were subcultivated on agar plates from cryopreserved cultures. All pathogens, except for H. influenzae DSM 4690, were cultivated on agar BHI (Brain Heart Infusion, Oxoid). The subculture of H. influenzae DSM 4690 requested the presence of traces of lysed red blood cells in the medium.
(§3) In short, the supernatants were obtained for centrifugation of liquid cultures of L. reuteri LMG P27481 and S. salivarius K12, sterilized by filtration. The aliquots were diluted in series for determining the vital count. The supernatants were diluted in series from 100% to 0.19% (v:v).
(§4) The pathogen strains were dosed optically by using the spectrophotometer at OD600 between 0.08-0.100 and diluted 100 times in Schaedler broth or sterile supernatants (to obtain the concentration of 100%).
All samples were incubated for 24 hours at 37°C under aerobic conditions for all strains except for H. influenzae DSM 4690 which required anaerobiosis conditions. […]

[2] = tested on: Streptococcus pneumoniae DSM 20566; assay: MIC determination by plate microdilution; type: cell-based; conditions: DSM20566, S. pneumoniae, 24 hours at 37°C
Procedure: as §1, §2, §3, §4
(§5) All samples were incubated for 24 hours at 37°C under aerobic conditions for all strains except for H. influenzae DSM 4690 which required anaerobiosis conditions.
(§6) Moreover, a control with serial dilutions of DMSO was performed in order to exclude that the presence of this diluent could exert an inhibitory effect on the pathogens.

[3] = tested on: Moraxella chatarralis DSM 9143; assay: MIC determination by plate microdilution; type: cell-based; conditions: DSM9143, M. chatarralis, 24 hours at 37°C
Procedure: as §1, §2, §3, §4, §5, §6

[4] = tested on: Streptococcus pyogenes LMG 21599; assay: MIC determination by plate microdilution; type: cell-based; conditions: LMG21599, S. pyogenes, 24 hours at 37°C
Procedure: as §1, §2, §3, §4, §5, §6

[5] = tested on: Haemophilus influenzae DSM 4690; assay: MIC determination by plate microdilution; type: cell-based; conditions: DSM4690, H. influenzae, 24 hours at 37°C, anaerobiosis
Procedure: as §1, §2, §3, §4, §5, §6

[6] = tested on: Staphylococcus aureus NCTC 6571; assay: MIC determination by plate microdilution; type: cell-based; conditions: NCTC6571, S. aureus, 24 hours at 37°C
Procedure: as §1, §2, §3, §4, §5, §6

involucrin (IVL) = assay: Gene expression by real-time PCR in 3D model of in vitro reconstituted skin (EpiDermFT); type: cell-based; conditions: vs control
Text: (§7) Evaluation of the gene expression of some cytokines (IL-25, IL-33, IL-37) and of filaggrin (FLG), involucrin (IVL) and loricrin (LOR) in a complex 3D model of in vitro reconstituted skin (EpiDermFT - MATTEK).
(§8) The 3D models of in vitro reconstituted skin constitute optimum systems capable of simulating well the functionalities of a complex organ such as skin and the interactions which are established between numerous cell populations composing it. Then, they try to free from the excessive simplification represented by one single cell line put in culture. The cytokines IL-25 and IL-33 are pro-inflammatory cytokines over-produced by the keratinocytes and by the surface layers of the skin after an insult; on the contrary the cytokine IL-37 is an anti-inflammatory cytokine. At last, the proteins filaggrin (FLG), involucrin (IVL) and loricrin (LOR), are proteins produced by epidermis, fundamental in the constitution of the barrier which protects from external agents and respond to cytokine signals. In particular, during an inflammatory event, the expression of these genes is sub-regulated; on the contrary, an anti-inflammatory state tends to over-express the genes FLG, IVL, LOR.
(§9) The extraction of total RNA was performed by QlAzol Lysis Reagent by following the instructions provided by the firm (Qiagen). The retro-transcription reactions were performed on 4 µg of total RNA by following the instructions provided by the protocol of the kit PROMEGA "GoTaq 2 Step RT qPCR System". The amplification for determining the gene expression, by real-time PCR technique, was performed on BioRad CFX96 machine and the related quantification was performed by the method of 2^-ΔΔCt.

loricrin (LOR) = assay: as above; type: cell-based; conditions: vs control
Text: as §7, §8, §9

IL-37 = assay: as above; type: cell-based; conditions: vs control, after 24 hours
Text: as §7, §8, §9

filaggrin (FLG) = assay: as above; type: cell-based; conditions: vs control
Text: as §7, §8, §9

HaCat. cells = type: cell-based
Text: MTT test is a colorimetric assay which exploits the capability of cells to convert, at mitochondrial level, the bromide of 3-(4,5-dimethylthiazol-2-il)-2,5-diphenyltetrazolium in the related salt, by evaluating the cell viability. The produced salt is solubilized in organic solvent in order to obtain a homogeneous solution in the single well, measurable spectrophotometrically. Besides, the crystal violet assay is based upon the capability of the homonymous […] dye to bind to DNA of the cells in culture and to return in this way a reliable estimation of the number of cells. […] Before colouring, washings in PBS were carried out. 50 µL of dye (MTT (5 mg/mL in PBS); Crystal violet (2,5 mg/mL in MeOH 20%)) were then added to each well and left in incubation at 37°C for 2 hours (MTT) or stirred on tilting plate for 20 min (Crystal violet). The exceeding dye was washed and the dye was solubilized in organic solvent (DMSO) in order to obtain a homogenous solution in the single well, measurable spectrophotometrically. The measurement of absorbance of the single wells was performed in a plate reader, at the wavelength of 570 nm, by normalizing the values with respect to the control.

Which IC50 [1] does the source give for `O=C1O[C@H]([C@@H](O)CO)C(O)=C1O` [Ascorbic Acid] here?
The IC50 was 665 ± 26 µM.

For `Oc1ccc(/C=C/c2cc(O)cc(O)c2)cc1` [Resveratrol, 3,5,4'-trihydroxy-trans-stilbene], which “%S (% of survival of microorganisms)” value (L. reuteri LMG P-27481; SS + 0.5 mg/ml Resveratrol, T5) is on record?
Its value is 99.9%.

What about the “%S (% of survival of microorganisms)” value (L. reuteri LMG P-27481; SS + 0.5 mg/ml Resveratrol, T10) of the same compound?
The value was 99.6%.

And the “%S (% of survival of microorganisms)” value (L. reuteri LMG P-27481; SS + 0.5 mg/ml Resveratrol, T30)?
The value was 99.3%.

What about the “%S (% of survival of microorganisms)” value (L. reuteri LMG P-27481; SS + 0.5 mg/ml Resveratrol, T60) of the same compound?
Its value is 99.2%.

And the “%S (% of survival of microorganisms)” value (L. reuteri LMG P-27481; SS + 1 mg/ml Resveratrol, T5)?
The value was 99.8%.

What about the “%S (% of survival of microorganisms)” value (L. reuteri LMG P-27481; SS + 1 mg/ml Resveratrol, T10) of the same compound?
Its value is 99.6%.

And the “%S (% of survival of microorganisms)” value (L. reuteri LMG P-27481; SS + 1 mg/ml Resveratrol, T30)?
The value was 99.6%.

And the “%S (% of survival of microorganisms)” value (L. reuteri LMG P-27481; SS + 1 mg/ml Resveratrol, T60)?
The value was 99.4%.

And the “%S (% of survival of microorganisms)” value (L. reuteri LMG P-27481; SS + 2.5 mg/ml Resveratrol, T5)?
Its value is 99.9%.

And the “%S (% of survival of microorganisms)” value (L. reuteri LMG P-27481; SS + 2.5 mg/ml Resveratrol, T10)?
The value was 99.6%.

What about the “%S (% of survival of microorganisms)” value (L. reuteri LMG P-27481; SS + 2.5 mg/ml Resveratrol, T30) of the same compound?
Its value is 99.5%.

And the “%S (% of survival of microorganisms)” value (L. reuteri LMG P-27481; SS + 2.5 mg/ml Resveratrol, T60)?
Its value is 99.2%.

And the “%S (% of survival of microorganisms)” value (L. reuteri LMG P-27481; SS + 5 mg/ml Resveratrol, T5 (5 minutes contact), 3×10^8 CFU/ml)?
The value was 99.7%.

What about the “%S (% of survival of microorganisms)” value (L. reuteri LMG P-27481; SS + 5 mg/ml Resveratrol, T10) of the same compound?
The value was 99.5%.

And the “%S (% of survival of microorganisms)” value (L. reuteri LMG P-27481; SS + 5 mg/ml Resveratrol, T30)?
The value was 99.3%.

And the “%S (% of survival of microorganisms)” value (L. reuteri LMG P-27481; SS + 5 mg/ml Resveratrol, T60)?
The value was 99.0%.

What about the “%S (% of survival of microorganisms)” value (L. reuteri LMG P-27481; SS + 5 mg/ml Resveratrol, T60, listed as resveratrol) of the same compound?
The value was “higher than 99%”.

And the inhibiting concentrations (all tested pathogens)?
The inhibiting concentrations was 80 to 160 µg/mL.

What about the MIC [2] of the same compound?
The MIC was 80 µg/mL (≈ 350 µM).

And the MIC [3]?
The MIC was 160 µg/mL (≈ 701 µM).

What about the MIC [4] of the same compound?
The MIC was 160 µg/mL (≈ 701 µM).

What about the MIC [5] of the same compound?
The MIC was 80 µg/mL (≈ 350 µM).

And the MIC [6]?
The MIC was 160 µg/mL (≈ 701 µM).

And the “expression of IVL” value (involucrin (IVL))?
The value was “minimum expression variations”.

And the “expression of LOR” value (loricrin (LOR))?
The value was “minimum expression variations”.

What about the “expression of IL-37” value (IL-37) of the same compound?
The value was “under-expression”.

And the “expression of FLG” value (filaggrin (FLG))?
The value was “minimum expression variations”.

What about the “cell count (crystal violet)” value (HaCat. cells) of the same compound?
Its value is “decrease in vitality and cell count”.

And the “cell viability (MTT)” value (HaCat. cells)?
Its value is “decrease in vitality”.
